Experimental data as given in paper PMC10547880, “Synthesis and biological evaluation of novel 1,2,3-triazole hybrids of cabotegravir: identification of potent antitumor activity against lung cancer” (Frontiers in Pharmacology, 2023).

System: H1299 cells
Assay: CCK8 cell viability, H1299
Type: cell-based, Human
Details: H1299, 25 μM, 48 h
Description: Human lung cancer cell line H460 and H1299, human liver normal cell line LO2 were bought from ATCC. DMEM or RPMI 1640 was used as the cell culture medium with 10% FBS and 1% penicillin/streptomycin. Cells were maintained in an incubator with 37°C humidified atmosphere and 5% CO2.
Cell viability and IC50 values were determined using the CCK8 assay kit. Cells were seeded at a density of 5 × 10^3 cells per well in a 96-well plate. After overnight adhesion, 25 μM of compounds or vehicle control DMSO which all dissolved in the culture medium were added to cells and cultured for 48 h or 72 h. CCK8 reagent, dissolved in the medium, was then added to cells and incubated for 1 h. The absorbance at 450 nm was measured using a microplate spectrophotometer (Thermo). Cell viability was calculated, with the untreated group taken as 100%. For IC50 values determination, different concentrations (0, 0.4 μM, 2 μM, 10 μM, 20 μM, 50 μM) of compounds were added to cells for 72 h. Subsequent CCK8 measurement allowed the calculation of inhibition percentage based on cell viability. The IC50 values were computed by the prism statistical software. The CCK-8 assay was conducted three times and the repetitions in each time were at least three. All the values were expressed as Mean ± SD, p < 0.05 was considered statistically significant.
In order to assess the potential cytotoxicity of the synthesized compounds, we selected two types of human non-small-cell lung cancer cell line, H460 and H1299. Cell viability and cytotoxicity were evaluated using the CCK8 assay ([Xu et al., 2018]). The cells were treated with 25 μM of compounds 5a-5s and 6a-6i for 48h and 72 h. […] In contrast, no compounds managed to reduce H1299 cell viability to less than 50%, yet compounds 5i, 5m, 6h and 6i achieved cell viability rates below 70%. […] It is worth noting that minimal effects on the cell viability of the normal cell line LO2 were observed when exposed to these compounds. Further, we determined the half-maximal inhibitory concentration (IC50) of selected compounds against H460 cells, the results of which were summarized in Table 3.

COc1c2n(cc(C(=O)Nc3cccc(-c4cn(-c5ccccc5OC(F)(F)F)nn4)c3)c1=O)CC1OCC(C)N1C2=O (stereo not shown) [Compound 5i]
Cell viability: 90.47%
